We go through 32 compounds from patent publication US11319315B2, “Cyclohexyl acid triazole azoles as LPA antagonists” (BRISTOL-MYERS SQUIBB COMPANY, priority 2017, dated 2022).

Counter-ions that a name gives are not always drawn.

T1 sequence (Q92633 whole entry): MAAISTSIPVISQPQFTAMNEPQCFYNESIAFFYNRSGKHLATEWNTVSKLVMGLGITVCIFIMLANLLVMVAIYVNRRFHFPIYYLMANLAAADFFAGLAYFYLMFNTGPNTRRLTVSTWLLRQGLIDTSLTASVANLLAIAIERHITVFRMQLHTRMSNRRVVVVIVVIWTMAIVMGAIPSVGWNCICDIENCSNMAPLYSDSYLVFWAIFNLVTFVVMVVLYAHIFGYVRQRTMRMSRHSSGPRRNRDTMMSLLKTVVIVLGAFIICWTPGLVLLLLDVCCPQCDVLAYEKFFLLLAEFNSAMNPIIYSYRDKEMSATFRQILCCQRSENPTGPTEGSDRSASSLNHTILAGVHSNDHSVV

The first test has as its target T1, human LPA1 (Homo sapiens, UniProt Q92633).
T1 construct: expressed in transfected cells; host or cells: Chinese hamster ovary (CHO) cells
The test is described as follows: LPA1 functional antagonist assay (LPA-induced calcium flux in CHO cells overexpressing human LPA1). It is filed as cell-based. Conditions: inhibition of calcium flux induced by 10 nM LPA, CHO cells overexpressing human LPA1; read-out: hLPA1 IC50. A digest of the protocol: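 Calcium flux was triggered by 10 nM LPA after 20 min room-temperature compound pre-incubation (final 0.08 nM to 5 μM, 0.5% DMSO) in human LPA1-overexpressing CHO cells carrying calcium dye. Buffer: HBSS with Ca/Mg, 20 mM HEPES, 0.1% fatty-acid-free BSA; IC50s from 4-parameter logistic fits.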
A general note: Calcium assays in cells follow changes in intracellular calcium, usually with a dye or a luminescent sensor.
Regarding `Cc1nc(-c2nnn(C)c2CNc2nc(C(C)(C)C)ns2)ccc1O[C@H]1CCC[C@H](C(=O)O)C1` [Example 3, (1 S,3 S)-3-((6-(5-(((3-(tert-Butyl)-1,2,4-thiadiazol-5-yl)amino)methyl)-1-methyl-1H-1,2,3-triazol-4-yl)-2-methylpyridin-3-yl)oxy)cyclohexanecarboxylic acid], the IC50 was 236 nM.

Consider `Cc1nc(-c2nnn(C)c2Cn2nnnc2-c2cccc(F)c2)ccc1O[C@H]1CCC[C@H](C(=O)O)C1` [Example 321, (1S,3S)-3-((6-(5-((5-(3-fluoro-phenyl)-1H-tetrazol-1-yl)methyl)-1-methyl-1H-1,2,3-triazol-4-yl)-2-methylpyridin-3-yl)oxy)cyclo-hexane-1-carboxylic acid], for which the IC50 worked out at 428 nM.

On to `Cc1nc(-c2nnn(C)c2CNc2noc(CCC3CCC3)n2)ccc1O[C@H]1CCC[C@H](C(=O)O)C1` [Example 166], for which the IC50 came to 5 nM.

For the compound `Cc1nc(-c2nnn(C)c2CNc2nc(C3CC3)no2)ccc1O[C@H]1CCC[C@H](C(=O)O)C1` [Example 58], the IC50 was found to be 316 nM.

On to `CCCc1nc(Cc2c(-c3ccc(O[C@H]4CCC[C@H](C(=O)O)C4)c(C)n3)nnn2C)no1` [Example 235, (1S,3S)-3-((2-methyl-6-(1-methyl-5-((5-propyl-1,2,4-oxadiazol-3-yl)methyl)-1H-1,2,3-triazol-4-yl)pyridin-3-yl)oxy)cyclohexane-1-carboxylic acid], for which the half-inhibitory concentration (IC50) came to 59 nM.

For `CCCc1nnn(Cc2c(-c3ccc(O[C@H]4CCC[C@H](C(=O)O)C4)cn3)nnn2C)n1` [Example 252, (1S,3S)-3-((6-(1-methyl-5-((5-propyl-2H-tetrazol-2-yl)methyl)-1H-1,2,3-triazol-4-yl)pyridin-3-yl)oxy)cyclohexane-1-carboxylic acid], the half-inhibitory concentration (IC50) stood at 531 nM.

Regarding `CCCc1nnc(OCc2c(-c3ccc(O[C@H]4CCC[C@H](C(=O)O)C4)c(C)n3)nnn2C)s1` [Example 132], the 50% inhibitory concentration (IC50) was found to be 97 nM.

On to `Cc1nc(-c2nnn(C)c2CNc2ncn(Cc3ccccc3)n2)ccc1O[C@H]1CCC[C@H](C(=O)O)C1` [Example 34], for which the concentration for half-maximal inhibition (IC50) came out at 332 nM.

For `Cc1nc(-c2nnn(C)c2Cc2noc(C(C)C)n2)ccc1O[C@H]1CCC[C@H](C(=O)O)C1` [Example 230, (1S,3S)-3-((6-(5-((5-isopropyl-1,2,4-oxadiazol-3-yl)methyl)-1-methyl-1H-1,2,3-triazol-4-yl)-2-methylpyridin-3-yl)oxy)cyclohexane-1-carboxylic acid], the half-inhibitory concentration (IC50) was determined as 95 nM.

As for `CCCOCc1nc(NCc2c(-c3ccc(O[C@H]4CCC[C@H](C(=O)O)C4)c(C)n3)nnn2C)no1` [Example 284, (1S,3S)-3-((2-methyl-6-(1-methyl-5-(((5-(propoxymethyl)-1,2,4-oxadi-azol-3-yl)amino)methyl)-1H-1,2,3-triazol-4-yl)pyridin-3-yl)oxy)cyclo-hexane-1-carboxylic acid, TFA salt], the IC50 came out at 24 nM.

Regarding `Cc1nc(-c2nnn(C)c2CNc2noc(C3CC(F)C3)n2)ccc1O[C@H]1CCC[C@H](C(=O)O)C1` (some centres unmarked) [Example 190], the 50% inhibitory concentration (IC50) was 55 nM.

For the compound `Cc1nc(-c2nnn(C)c2Cn2nnc(Cc3ccccc3)n2)ccc1O[C@H]1CCC[C@H](C(=O)O)C1` [Example 109], the IC50 worked out at 14 nM.

Consider `Cc1nc(-c2nnn(C)c2Cn2ncc(CC3CC3)n2)ccc1O[C@H]1CCC[C@H](C(=O)O)C1` [Example 264, (1S,3S)-3-((6-(5-((4-(cyclopropyl-methyl)-2H-1,2,3-triazol-2-yl)methyl)-1-methyl-1H-1,2,3-triazol-4-yl)-2-methylpyridin-3-yl)oxy)cyclohexane-1-carboxylic acid], for which the IC50 is 14 nM.

Take `Cc1nc(-c2nnn(C)c2Cn2nnnc2COc2ccccc2)ccc1O[C@H]1CCC[C@H](C(=O)O)C1` [Example 304, (1S,3S)-3-{[2-methyl-6-(1-methyl-5-{[5-(phenoxymethyl)-1H-1,2,3,4-tetrazol-1-yl]methyl}-1H-1,2,3-triazol-4-yl)pyridin-3-yl]oxy}cyclohexane-1-carboxylic acid]: the IC50 was determined as 124 nM.

Regarding `Cc1nc(-c2nnn(C)c2CNc2noc(C3CC3(C)C)n2)ccc1O[C@H]1CCC[C@H](C(=O)O)C1` (some centres unmarked) [Example 182], the IC50 stood at 17 nM.

As for `CCCCc1cn(Cc2c(-c3ccc(O[C@H]4CCC[C@H](C(=O)O)C4)c(C#N)n3)nnn2C)nn1` [Example 90], the half-inhibitory concentration (IC50) was found to be 78 nM.

On to `CCCCc1cn(Cc2c(-c3ccc(O[C@H]4CCC[C@H](C(=O)O)C4)c(C)n3)nnn2C)nn1` [Example 79, (1 S,3 S)-3-((6-(5-((4-butyl-1H-1,2,3-triazol-1-yl)methyl)-1-methyl-1H-1,2,3-triazol-4-yl)-2-methylpyridin-3-yl)oxy)cyclohexane-1-carboxylic acid], for which the IC50 came to 44 nM.

With `Cc1nc(-c2nnn(C)c2Cn2nnc(CC3CCCC3)n2)ccc1O[C@H]1CCC[C@H](C(=O)O)C1` [Example 331, (1S,3S)-3-((6-(5-((5-(cyclopentyl-methyl)-2H-tetrazol-2-yl)methyl)-1-methyl-1H-1,2,3-triazol-4-yl)-2-methylpyridin-3-yl)oxy)cyclohexane-1-carboxylic acid], the IC50 was 7 nM.

Regarding `CCC(C)n1cnc(OCc2c(-c3ccc(O[C@H]4CCC[C@H](C(=O)O)C4)c(C)n3)nnn2C)n1` (some centres unmarked) [Example 142], the IC50 is 509 nM.

`CCCCc1nc(NCc2c(-c3ccc(O[C@H]4CCC[C@H](C(=O)O)C4)cn3)nnn2C)no1` [Example 287, (1S,3S)-3-((6-(5-(((5-butyl-1,2,4-oxadiazol-3-yl)amino)methyl)-1-methyl-1H-1,2,3-triazol-4-yl)pyridin-3-yl)oxy)cyclohexane-1-carboxylic acid]: the IC50 is 124 nM.

As to `C=C(C)c1cnn(Cc2c(-c3ccc(O[C@H]4CCC[C@H](C(=O)O)C4)c(C)n3)nnn2C)n1` [Example 271, (1S,3 S)-3-((2-methyl-6-(1-methyl-5-((4-(prop-1-en-2-yl)-2H-1,2,3-triazol-2-yl)methyl)-1H-1,2,3-triazol-4-yl)pyridin-3-yl)oxy)cyclohexane-1-carboxylic acid], the 50% inhibitory concentration (IC50) stood at 136 nM.

Regarding `CCCCc1nnc(Cc2c(-c3ccc(O[C@H]4CCC[C@H](C(=O)O)C4)c(C)n3)nnn2C)o1` [Example 74], the IC50 was 227 nM.

Consider `Cc1nc(-c2nnn(C)c2CNc2ncn(-c3cc(F)cc(F)c3)n2)ccc1O[C@H]1CCC[C@H](C(=O)O)C1` [Example 211, (1 S,3 S)-3-((6-(5-(((1-(3,5-difluorophenyl)-1H-1,2,4-triazol-3-yl)amino)methyl)-1-methyl-1H-1,2,3-triazol-4-yl)-2-methylpyridin-3-yl)oxy)cyclohexane-1-carboxylic acid], for which the concentration for half-maximal inhibition (IC50) worked out at 45 nM.

`CCC(C)n1cnc(NCc2c(-c3ccc(O[C@H]4CCC[C@H](C(=O)O)C4)c(C)n3)nnn2C)n1` (some centres unmarked) [Example 149]: the IC50 worked out at 221 nM.

Turning to `CCCOCc1nnn(Cc2c(-c3ccc(O[C@H]4CCC[C@H](C(=O)O)C4)c(C)n3)nnn2C)n1` [Example 302, (1S,3S)-3-{[2-methyl-6-(1-methyl-5-{[5-(propoxymethyl)-2H-1,2,3,4-tetrazol-2-yl]methyl}-1H-1,2,3-triazol-4-yl)pyridin-3-yl]oxy}cyclohexane-1-carboxylic acid], the IC50 was 63 nM.

Consider `Cc1nc(-c2nnn(C)c2COc2ncn(-c3ccccc3)n2)ccc1O[C@H]1CCC[C@H](C(=O)O)C1` [Example 115, (1S,3S)-3-((2-methyl-6-(1-methyl-5-(((1-phenyl-1H-1,2,4-triazol-3-yl)oxy)methyl)-1H-1,2,3-triazol-4-yl)pyridin-3-yl)oxy)cyclohexane-1-carboxylic acid], for which the IC50 was 47 nM.

Still in this test, the particulars now being: read-out: hLPA1 IC50.
Take `Cc1nc(-c2nnn(C)c2CNc2noc(COCCCCF)n2)ccc1O[C@H]1CCC[C@H](C(=O)O)C1` [Example 410, (1S,3S)-3-((6-(5-(((5-((4-fluoro-butoxy)methyl)-1,2,4-oxadiazol-3-yl)amino)methyl)-1-methyl-1H-1,2,3-triazol-4-yl)-2-methylpyridin-3-yl)oxy)cyclohexane-1-carboxylic acid]: the half-maximal inhibitory concentration (IC50) came out at 43 nM.

`CCCc1nsc(NCc2c(-c3ccc(O[C@H]4CCC[C@H](C(=O)O)C4)c(CC)n3)nnn2C)n1` [Example 399, (1S,3S)-3-((2-ethyl-6-(1-methyl-5-(((3-propyl-1,2,4-thiadiazol-5-yl)amino)methyl)-1H-1,2,3-triazol-4-yl)pyridin-3-yl)oxy)cyclohexane-1-carboxylic acid]: the IC50 came to 73 nM.

Take `Cc1nc(-c2nnn(C)c2Cn2nnc(NCC3CC3)n2)ccc1O[C@H]1CCC[C@H](C(=O)O)C1` [Example 359, (1S,3S)-3-((6-(5-((5-((cyclopropylmethyl)amino)-2H-tetrazol-2-yl)methyl)-1-methyl-1H-1,2,3-triazol-4-yl)-2-methylpyridin-3-yl)oxy)cyclohexane-1-carboxylic acid]: the 50% inhibitory concentration (IC50) was found to be 428 nM.

On to `CCc1nc(-c2nnn(C)c2CNc2nc(C3CCC3)ns2)ccc1O[C@H]1CCC[C@H](C(=O)O)C1` [Example 396, (1S,3S)-3-((6-(5-(((3-cyclobutyl-1,2,4-thiadiazol-5-yl)amino)methyl)-1-methyl-1H-1,2,3-triazol-4-yl)-2-ethylpyridin-3-yl)oxy)cyclohexane-1-carboxylic acid], for which the IC50 was 33 nM.

Regarding `Cc1nc(-c2nnn(C)c2Cc2nnnn2Cc2ccccc2)ccc1O[C@H]1CCC[C@H](C(=O)O)C1` [Example 369, (1S,3S)-3-((6-(5-((1-benzyl-1H-tetrazol-5-yl)methyl)-1-methyl-1H-1,2,3-triazol-4-yl)-2-methylpyridin-3-yl)oxy)cyclohexane-1-carboxylic acid], the IC50 amounted to 123 nM.

In the case of `Cc1nc(-c2nnn(C)c2Cc2nnnn2CC(C)C)ccc1O[C@H]1CCC[C@H](C(=O)O)C1` [Example 374, (1S,3S)-3-((6-(5-((1-isobutyl-1H-tetrazol-5-yl)methyl)-1-methyl-1H-1,2,3-triazol-4-yl)-2-methylpyridin-3-yl)oxy)cyclohexane-1-carboxylic acid], the IC50 came out at 207 nM.

The term IC50 denotes the point on the concentration scale where inhibition reaches its midpoint.
